What was measured:
[1] = rat, in vivo, iv, 5 mg/kg
Procedure: Polymer-cisplatin was injected subcutaneously to mice at the amount 10, 20, 40 µL per mice that is 4, 8, 16 mg cisplatin/Kg. As controls, 50µL of the drug free polymer was injected and 200 µL IV injection at a dose of 5 mg/kg. The mice were observed daily for morbidity and mortality, and daily for general clinical signs (cage side observation): changes in the skin, fur, eyes, nose, mouth, head, respiration, urine, feces, locomotor, and overall wellness.
An animal showing one of the humane endpoints according to Clinical Signs″, SOP-06-019, were euthanized and subjected to the termination procedure. Blood collection for cisplatin content was at 0(baseline), 1 h, 4 h, 8 h, 24 h,48 h,96 h, 168 h, thereafter once weekly until week 4. Blood for CBC and Biochemistry was at: 0(Baseline), 24 h, 72 h, 168 h thereafter once weekly until sacrifice. For the IV injected mice, plasma was collected at 0(baseline), 5 m, 15 m, 30 m, 1 h, 2 h, 4 h, 8 h, 24 h, 48 h, 72 h, and 96 h. Whole blood and Blood Biochemistry was at 0(Baseline), 24h and 96h. Whole blood was collected from each animal and treated according to common procedures. Urine collection amount was recorded at 0-6, 12-24, 48-72h, 72-96h, 96-120h and once weekly thereafter.

[2] = system: Head and Neck Cancer tumor cells; assay: In vivo testing of the cisplatin formulation for head and neck cancer with radiotherapy; conditions: nude mice, treatment 20 days after cell injection, 8 Gy irradiation at day 21 and 24, terminated day 50
Procedure: In this study, 3 experimental groups were used, 6 nude mice per group. All mice were injected with 600000 tumor cells. […] Cisplatin solutions were injected IP for 4 consecutive weeks, a total of 4 administrations. The animals were irradiated with 8 Gy at day 21 and day 24. The experiment was terminated at day 50.

SMILES: [NH2][Pt]([NH2])([Cl])[Cl] [cisplatin solution, Cisplatin]
- blood count (HGB, RBG & HCT) [1]: drastic drop in markers
- body weight [1]: lower body weight
- kidneys performance (creatinine and urea excretion) [1]: deteriorated kidneys performance
- side effects, behaviour after injection [1]: severe side effects
- effect on the tumor (tumor size) [2]: did not show any effect on the tumor

Source: patent US20230285337A1, “LONG ACTING ANTICANCER COMPOSITIONS” (INTRAGEL THERAPEUTICS LTD., priority 2020, published 2023)
